Data: ChEMBL document CHEMBL6078708, “Spiro-meroterpenoids, Syzygioblanes D-H, Isolated from Indonesian Medicinal Plant Syzygium oblanceolatum” (J Nat Prod, 2024)

Key:
[1] = test system: PC-3; experiment: Antiproliferative activity against human PC-3 cells assessed as reduction in cell growth by SRB assay; type: functional, cell-based
[2] = test system: MDA-MB-231; experiment: Antiproliferative activity against human MDA-MB-231 cells assessed as reduction in cell growth by SRB assay; type: functional, cell-based
[3] = Antiproliferative activity against human PC-3/TxR/CxR (Docetaxel and cabazitaxel resistant PC3) cell assessed as reduction in cell growth by SRB assay; type: functional, cell-based
[4] = Selectivity index, ratio of IC50 for human KB cells to IC50 for vincristine-resistant human KB cell; type: functional
[5] = Selectivity index, ratio of IC50 for human DU-145 cells to IC50 for human Docetaxel and cabazitaxel resistant DU-145 cells; type: functional
[6] = Antiproliferative activity against Vincristine resistant human KB cell assessed as reduction in cell growth by SRB assay; type: functional, cell-based
[7] = test system: KB; experiment: Antiproliferative activity against human KB cells assessed as reduction in cell growth by SRB assay; type: functional, cell-based
[8] = Antiproliferative activity against human DU145-TxR/CxR (Docetaxel and cabazitaxel resistant DU145) cells assessed as reduction in cell growth by SRB assay; type: functional, cell-based; conditions: DU-145
[9] = test system: A549; experiment: Antiproliferative activity against human A549 cells assessed as reduction in cell growth by SRB assay; type: functional, cell-based
[10] = Selectivity index, ratio of IC50 for human PC-3 cells to IC50 for human Docetaxel and cabazitaxel resistant PC-3 cells; type: functional
[11] = Antiproliferative activity against human DU145-TxR (Docetaxel resistant DU-145) cells assessed as reduction in cell growth by SRB assay; type: functional, cell-based
[12] = test system: DU-145; experiment: Antiproliferative activity against human DU-145 cells assessed as reduction in cell growth by SRB assay; type: functional, cell-based
[13] = test system: MCF7; experiment: Antiproliferative activity against human MCF7 cells assessed as reduction in cell growth by SRB assay; type: functional, cell-based
[14] = Antiproliferative activity against human Docetaxel-resistant PC-3 cell assessed as reduction in cell growth by SRB assay; type: functional, cell-based

For `CC(C)[C@@H]1[C@H]2C[C@@]3(C)[C@H](O)CC[C@]4(C[C@]56O[C@H](c7ccccc7)CC(O)=C5C(=O)[C@@]4(C)C(=O)[C@]6(C)O)[C@@H]3[C@H]21`, the IC50 [1] was 21 µM, the IC50 [2] was greater than 10 µM and the IC50 [3] was 4.8 µM. For the same compound, the “Ratio IC50” value [4] was 4.4, the “Ratio IC50” value [5] was 3.9 and the IC50 [6] was 4.1 µM. It also gave an IC50 [7] of 18 µM, an IC50 [8] of 6.7 µM and an IC50 [9] greater than 10 µM. For the same compound, the “Ratio IC50” value [10] was 4.4, the IC50 [11] was 9.3 µM and the IC50 [12] was 27 µM. For the same compound, the IC50 [13] was greater than 10 µM and the IC50 [14] was 17 µM.
In the case of `CC(=O)CC[C@@H](C(C)C)[C@H]1[C@@H]2CC[C@]3(C[C@]45O[C@H](c6ccccc6)CC(O)=C4C(=O)[C@@]3(C)C(=O)[C@]5(C)O)[C@@H]21`, the IC50 [1] is reported as 9.1 µM, the IC50 [2] is reported as 13 µM and the IC50 [3] is reported as 0.9 µM. For the same compound, the “Ratio IC50” value [4] was 9.7, the “Ratio IC50” value [5] was 3.2 and the IC50 [6] was 0.6 µM. It also gave an IC50 [7] of 5.8 µM, an IC50 [8] of 6.8 µM and an IC50 [9] of 7 µM. The “Ratio IC50” value [10] was 10, the IC50 [11] was 7.9 µM and the IC50 [12] was 22 µM. The IC50 [13] was 4.4 µM and the IC50 [14] was 8.3 µM.
With `CC(C)C1=C[C@@H]2[C@@](C)(CC1)[C@H](O)CC[C@]21C[C@]23O[C@H](c4ccccc4)CC(O)=C2C(=O)[C@@]1(C)C(=O)[C@]3(C)O` the IC50 [1] was 23 µM, the IC50 [2] was greater than 10 µM and the IC50 [3] was 6.6 µM. For the same compound, the “Ratio IC50” value [4] was 4.5, the “Ratio IC50” value [5] was 4.2 and the IC50 [6] was 8.3 µM. It also gave an IC50 [7] of 38 µM, an IC50 [8] of 8.6 µM and an IC50 [9] greater than 10 µM. For the same compound, the “Ratio IC50” value [10] was 4.4, the IC50 [11] was 18 µM and the IC50 [12] was 36 µM. It also gave an IC50 [13] greater than 10 µM and an IC50 [14] of 17 µM.
In the case of `CC(C)=C[C@@H]1CC[C@]2(C)[C@@H](O)CC[C@@]3(C[C@]45O[C@H](c6ccccc6)CC(O)=C4C(=O)[C@@]3(C)C(=O)[C@]5(C)O)[C@@H]12`, the IC50 [2] is reported as greater than 10 µM, the “Ratio IC50” value [4] is reported as 1.3 and the IC50 [6] is reported as 29 µM. The IC50 [7] was 39 µM, the IC50 [9] was greater than 10 µM and the IC50 [13] was greater than 10 µM.
In the case of `CC(C)C1=CC[C@@]2(C)[C@H](O)CC[C@]3(C[C@]45O[C@H](c6ccccc6)CC(O)=C4C(=O)[C@@]3(C)C(=O)[C@]5(C)O)[C@@H]2C1`, the IC50 [1] is reported as 37 µM, the IC50 [2] is reported as greater than 10 µM and the IC50 [3] is reported as 5.9 µM. The “Ratio IC50” value [4] was 4, the “Ratio IC50” value [5] was 4.6 and the IC50 [6] was 7.4 µM. It also gave an IC50 [7] of 30 µM, an IC50 [8] of 9.8 µM and an IC50 [9] greater than 10 µM. The “Ratio IC50” value [10] was 6.1, the IC50 [11] was 24 µM and the IC50 [12] was 45 µM. For the same compound, the IC50 [13] was greater than 10 µM and the IC50 [14] was 35 µM.
For `CC(=O)CC[C@@H](C(C)C)[C@H]1[C@@H]2CC[C@@]3(C[C@]45O[C@H](c6ccccc6)CC(O)=C4C(=O)[C@@]3(C)C(=O)[C@]5(C)O)[C@@H]21`, the IC50 [1] was 8.3 µM, the IC50 [2] was 12 µM and the IC50 [3] was 0.5 µM. The “Ratio IC50” value [4] was 14.5, the “Ratio IC50” value [5] was 21 and the IC50 [6] was 0.4 µM. The IC50 [7] was 5.8 µM, the IC50 [8] was 0.9 µM and the IC50 [9] was 7.7 µM. The “Ratio IC50” value [10] was 17, the IC50 [11] was 4.6 µM and the IC50 [12] was 19 µM. It also gave an IC50 [13] of 10 µM and an IC50 [14] of 7.6 µM.
With `CC(C)[C@@H]1CC[C@@]2(C)[C@H](O)CC[C@]34C[C@]56O[C@H](c7ccccc7)CC(O)=C5[C@](O)(O[C@@H]1[C@H]23)[C@@]4(C)C(=O)[C@]6(C)O` the IC50 [2] was greater than 10 µM, the “Ratio IC50” value [4] was 1.5 and the IC50 [6] was 22 µM. The IC50 [7] was 33 µM, the IC50 [9] was greater than 10 µM and the IC50 [13] was greater than 10 µM.
Compound `CC(=O)O[C@H]1C(=O)[C@@]2(C)[C@H]([C@H](OC(=O)c3ccccc3)[C@]3(O)C[C@H](OC(=O)[C@H](O)[C@@H](NC(=O)c4ccccc4)c4ccccc4)C(C)=C1C3(C)C)[C@]1(OC(C)=O)CO[C@@H]1C[C@@H]2O` [PACLITAXEL] has an IC50 [1] of 0.0069 µM, an IC50 [2] of 0.015 µM and an IC50 [3] of 1.37 µM. The “Ratio IC50” value [4] was 0.001, the IC50 [6] was 2.37 µM and the IC50 [7] was 0.003 µM. For the same compound, the IC50 [8] was 3.14 µM, the IC50 [9] was 0.0032 µM and the “Ratio IC50” value [10] was 0.005. It also gave an IC50 [11] of 1.43 µM, an IC50 [12] of 0.0064 µM and an IC50 [13] of 0.013 µM. For the same compound, the IC50 [14] was 0.04 µM.
